According to US4062944A, “Mixture of antibiotics produced by new species of micromonospora” (Pfizer Inc., priority 1976, dated 1977):
Converted amounts (≈) assume the structure as drawn. Like-named read-outs stand apart in the source and are kept apart here.

Tests used:
[1] = Antibiotic properties of hexahydro derivatives compared with parent compounds; conditions: compared with the parent compound
M. tuber. H37Rv = experiment: Minimal inhibitory concentration, nutrient broth tube dilution, M. tuberculosis; assay type: cell-based; conditions: Mycobacterium tuberculosis
Procedure: (§1) These tests were run by preparing tubes of nutrient broth with gradually increasing concentrations of the pure antibiotic and then seeding the broths with the particular organism specified. […] The tests were conducted under standardized conditions as described in Proc. Soc. Exp. Biol. & Med. 122, ll07 (1966). Tables II and III illustrate the in vivo activity of these new antibiotics in experimentally infected mice.

Streptococcus pyogenes = experiment: Minimal inhibitory concentration, nutrient broth tube dilution, Streptococcus pyogenes; assay type: cell-based
Procedure: as §1

Staphylococcus aureus = experiment: Minimal inhibitory concentration, nutrient broth tube dilution, Staphylococcus aureus; assay type: cell-based
Procedure: as §1

[2] = tested on: S. aureus (multi-resistant); experiment: Minimal inhibitory concentration, nutrient broth tube dilution, S. aureus (multi-resistant); assay type: cell-based; conditions: Staphylococcus aureus
Procedure: as §1

Diplococci = experiment: In vivo activity in experimentally infected mice, Diplococci (PD50); conditions: Mus musculus, oral, read-out: PD50 (dose that provides 50% protection)
Procedure: as §1
(§2) *Dose that provides 50% protection?

Streptococci = experiment: In vivo activity in experimentally infected mice, Streptococci (PD50); conditions: Mus musculus, oral, read-out: PD50 (dose that provides 50% protection)
Procedure: as §1, §2

Staphylococci = experiment: In vivo activity in experimentally infected mice, Staphylococci (PD50); conditions: Mus musculus, read-out: PD50 (dose that provides 50% protection)
Procedure: as §1, §2

M. tuberculosis = M. tuberculosis infection in mice, survival; assay type: in vivo; conditions: evaluated at 53 days post challenge; for Percent Survival: control 20; for Average Survival Time: control 37.7
Procedure: as §1
M. tuberculosis Infection in Mice
*Evaluated at 53 days post challenge

Molecule: hexahydro derivative of 3-methylthiorifamycin SV
- antibiotic properties / antibiotic activity [1]: comparable to those of the parent compounds

Molecule: hexahydro-3-methylthiorifamycin S
- antibiotic properties / antibiotic activity [1]: comparable to those of the parent compounds

Molecule: COC1C=COC2(C)Oc3c(C)c(O)c4c(O)c(c(SC)c(O)c4c3C2=O)NC(=O)C(C)=CC=CC(C)C(O)C(C)C(O)C(C)C(OC(C)=O)C1C (stereo not shown) [3-methylthiorifamycin SV]
- MIC (M. tuber. H37Rv): 15 ng/mL (≈ 20.2 nM)
- MIC (Streptococcus pyogenes): 1.9 ng/mL (≈ 2.55 nM)
- MIC (Staphylococcus aureus): 1.9 ng/mL (≈ 2.55 nM)
- MIC [2]: 1.9 to 3.9 ng/mL (≈ 2.55 to 5.24 nM)
- ED50 (Diplococci): 8 mg/kg
- ED50 (Streptococci): 0.22 mg/kg
- ED50 (Staphylococci; oral): 1.1 mg/kg
- ED50 (Staphylococci; sc, subcutaneous): 0.65 mg/kg
- Percent Survival (M. tuberculosis; daily dose 0.5 mg): 70%
- Average Survival Time (M. tuberculosis; daily dose 0.5 mg): 44.3 days
- Percent Survival (M. tuberculosis; daily dose 5.0 mg): 100%
- Average Survival Time (M. tuberculosis; daily dose 5.0 mg): 53.0 days

Molecule: COC1C=COC2(C)Oc3c(C)c(O)c4c(c3C2=O)C(=O)C(SC)=C(NC(=O)C(C)=CC=CC(C)C(O)C(C)C(O)C(C)C(OC(C)=O)C1C)C4=O (stereo not shown) [3-methylthiorifamycin S]
- MIC (M. tuber. H37Rv): 6 ng/mL (≈ 8.09 nM)
- MIC (Streptococcus pyogenes): 0.9 ng/mL (≈ 1.21 nM)
- MIC (Staphylococcus aureus): 0.4 ng/mL (≈ 0.539 nM)
- MIC [2]: 1.2 to 3.9 ng/mL (≈ 1.62 to 5.26 nM)
- ED50 (Diplococci): > 12.5 mg/kg
- ED50 (Streptococci): 0.6 mg/kg
- ED50 (Staphylococci; oral): 1.4 mg/kg
- ED50 (Staphylococci; sc, subcutaneous): 0.17 mg/kg
